Results: article PMC4966941 (PLoS ONE, 2016)
Counter-ions that a name gives are not always drawn.

Columns and labels:
[1] = system: Staphylococcus aureus Xen 36; test: In-vivo infection prevention study: X-ray and micro-CT signs of tibial osteomyelitis
Protocol: Bioluminescent strain Staphylococcus aureus Xen 36 (Caliper LifeSciences, Alameda, CA) was used to develop bone infection. The strain was stored in a glycerol (20% v/v) and Brain Heart Infusion (BHI) suspension at -80°C until required. Bacteria were subcultured onto an LB plate (Luria-Bertani, Miller broth mixed with 1.2% (w/v) Technical Agar (Difco, Sparks, MD.)), at 37°C overnight. Five colonies were then transferred to 3 mL LB broth and grown in shaker incubator (200 rpm), at 37°C for 2.5 h. Two milliliters of the bacterial suspension was transferred to 100 mL LB broth and grown for a further 4 h, until the cells reached exponential growth. Bacterial suspension was transferred into 50 mL centrifuge tubes and cells centrifuged at ~3,000 rpm for 30 min. Supernatants were discarded and pellets were re-suspended in 15 mL Phosphate Buffered Saline (PBS). Cells were then mixed by vortexing and the centrifugation process was repeated. This cell washing process was repeated three times. The final washed and pelleted cells were re-suspended in a total of 10 mL PBS, and mixed by vortexing. The cell suspension was then ten-fold serially diluted. The concentration of the cell suspension was then determined using the spread plate technique and spreading 100 μL of the various dilutions onto LB plates, in duplicate. Plates were incubated at 37°C overnight before counting colony forming units (CFU). […]

[2] = patient with normal renal function, intravenous infusion; ref [11], [21]; cited from earlier work
[3] = system: chondrocyte (N1511) cells; set-up: method as in Antoci et al. [39]; conditions: ref Antoci et al. [39]; cited from earlier work

SMILES: CN[C@H](CC(C)C)C(=O)N[C@H]1C(=O)N[C@@H](CC(N)=O)C(=O)N[C@H]2C(=O)N[C@H]3C(=O)N[C@H](C(=O)N[C@H](C(=O)O)c4cc(O)cc(O)c4-c4cc3ccc4O)[C@H](O)c3ccc(c(Cl)c3)Oc3cc2cc(c3O[C@@H]2O[C@H](CO)[C@@H](O)[C@H](O)[C@H]2O[C@H]2C[C@](C)(N)[C@H](O)[C@H](C)O2)Oc2ccc(cc2Cl)[C@H]1O [vancomycin, vancomycin hydrochloride]
- Vancomycin treated rats displaying radiographic signs of osteomyelitis ([1]; rat tibia inoculated with S. aureus Xen 36 (Log10 5.5 CFU/5 μL) with simultaneous single 25 mg/Kg intramedullary dose, 14 days, n = 9): zero
- Micro CT evaluation of treated rats ([1]; rat tibia inoculated with S. aureus Xen 36, single 25 mg/Kg intramedullary dose, compared to untreated controls): absent of any signs of osteomyelitis
- Elimination half-life [2]: approximately 6 hours
- Doses that severely decreased cellular proliferation [3]: greater than 2 mg/mL
